The text below walks through data of paper PMC4801743 (Journal of enzyme inhibition and medicinal chemistry, 2015).

In test [1] the target is T1, PHM (Rattus norvegicus, UniProt P14925).
T1 sequence (P14925 36-715 isoform P14925-2 limits assumed): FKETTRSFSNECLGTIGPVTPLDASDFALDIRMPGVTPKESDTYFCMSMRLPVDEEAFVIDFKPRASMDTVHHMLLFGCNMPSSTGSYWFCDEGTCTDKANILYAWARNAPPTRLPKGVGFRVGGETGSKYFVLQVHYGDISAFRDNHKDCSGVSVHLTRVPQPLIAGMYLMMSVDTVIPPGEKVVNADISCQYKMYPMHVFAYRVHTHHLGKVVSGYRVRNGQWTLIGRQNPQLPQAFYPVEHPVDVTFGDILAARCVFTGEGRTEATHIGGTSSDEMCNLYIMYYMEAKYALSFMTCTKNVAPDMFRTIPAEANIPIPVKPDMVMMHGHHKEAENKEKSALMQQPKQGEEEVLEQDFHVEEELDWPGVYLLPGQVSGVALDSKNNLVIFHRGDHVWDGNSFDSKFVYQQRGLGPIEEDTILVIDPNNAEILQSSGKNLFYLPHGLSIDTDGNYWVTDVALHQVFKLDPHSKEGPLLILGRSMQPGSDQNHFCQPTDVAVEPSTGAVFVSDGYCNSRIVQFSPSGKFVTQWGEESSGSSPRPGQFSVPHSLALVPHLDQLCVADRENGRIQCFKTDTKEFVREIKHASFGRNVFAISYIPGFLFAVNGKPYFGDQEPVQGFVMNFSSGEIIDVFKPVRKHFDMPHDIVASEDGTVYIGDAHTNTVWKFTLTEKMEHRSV
Put plainly: Inhibition of the PHM-dependent consumption of O2. Format: biochemical.

For a further test, the system named is P450. Particulars: inactivation of P450; cited from earlier work.
Test [2] has as its target T1, PHM. Put plainly: PHM inactivation by the dilution method. Format: biochemical. The note with it: for Inactivation of PHM (qualitative): dilution method, in the presence of ascorbate and O2; for kinact/KI: pH 6, read-out: (kinact/KI)obs.
Test [3] deals with PHM. Particulars: cited from earlier work; for Ki: PHM inactivator; for Km: PHM substrate.
The target of test [4] is T1, PHM. Put plainly: Tiopronin protection against the cinnamate-mediated inactivation of PHM. Format: biochemical. The note with it: 60 μM tiopronin, 7.5 mM cinnamate, 2 h.
In test [5] the test system is dopamine β-monooxygenase (DβM). The note with it: inactivation of DβM; cited from earlier work.

In the case of `O=C(O)C=Cc1ccccc1C(F)(F)F` [2-Trifluoromethylcinnamic acid], the Ki on PHM [1] was 200 ± 20 µM.

Regarding `C=CCC(C(N)=O)C(C)C` (centres unmarked) [2-isopropyl-4-pentenamide], in the test with P450, the partition ratio is 200–300.

Molecule `O=C(O)C=Cc1ccc2c(c1)OCO2` [3,4-Methylenedioxycinnamic acid] returned a Ki at PHM [1] of 300 ± 40 µM.

In the case of `Nc1ccc(C=CC(=O)O)cc1` [4-Aminocinnamic acid], on PHM [2], the “Inactivation of PHM (qualitative)” value is “inactivate PHM” and the kinact/KI is 1 M⁻¹ s⁻¹. This molecule registered a Ki on PHM [1] of 500 ± 60 µM.

With `CN(C)c1ccc(C=CC(=O)O)cc1` [N,N-Dimethyl-4-aminocinnamic acid], at PHM [2], the “Inactivation of PHM (qualitative)” value is given as “inactivate PHM” and the kinact/KI is 0.5 M⁻¹ s⁻¹.

As to `CN(C)c1cccc2c(S(=O)(=O)Nc3ccc(C=CC(=O)O)cc3)cccc12` [N-Dansyl-4-aminocinnamic acid], at PHM [2], the “Inactivation of PHM (qualitative)” value is given as “inactivate PHM” and the kinact/KI was found to be 333 M⁻¹ s⁻¹. Also, on PHM [2] (ratio to the (kinact/KI)obs value for cinnamate), the “(kinact/KI)obs relative to cinnamate” value is ~ 500 fold.

As to `O=C(O)C/C=C/c1ccccc1` [PBA, trans-4-phenyl-3-butenoate], on PHM [3], the Ki is 50 µM.

`O=C(O)/C=C/C(=O)c1ccccc1` [benzoylacrylate, trans-benzoylacrylate]: the Ki on PHM [3] is 200 µM.

As to `O=C(O)CNC(=O)C=Cc1ccccc1` [cinnamoylglycine, N-cinnamoylglycine], in the test with PHM [3], the Michaelis-Menten constant (Km) was 200 µM.

For the molecule `O=C(O)CNC(=O)CCc1ccccc1` [hydrocinnamoylglycine, N-hydrocinnamoylglycine], the Michaelis-Menten constant (Km) in the test on PHM [3] was 900 µM.

As to `CC(S)C(=O)NCC(=O)O` (centres unmarked) [tiopronin], the “Protection of PHM from cinnamate-mediated inactivation” value at PHM [4] is “did protect PHM from inactivation”.

With phenyl(aminomethyl)ethane, in test [5], the “partition ratio, kcat/kinact” value is on record as 900.
